Data on 4 molecules can be found in patent publication US5688957A, “[(3"-thioxacyclohex-1"-enyl)]-but-3'-ene-1'-ynyl]aryl and [(3"-thioxacyclohex-1"-enyl)]-but-3'-ene-1'-ynyl]heteroaryl carboxylic acids and esters having retinoid-like biological activity” (Allergan, priority 1995, dated 1997).

The subject of this test is ornithine decarboxylase (ODC). Put plainly: inhibition of TPA induction of ornithine decarboxylase (ODC) activity. The format is in vivo. The conditions noted are these: for IC60: concentration which results in 60% inhibition; for IC80: IC80 column. The source says: The retinoid-like activity of these compounds is confirmed through the classic measure of retinoic acid activity involving the effects of retinoic acid on ornithine decarboxylase. The original work on the correlation between retinoic acid and decrease in cell proliferation was done by Verma & Boutwell, Cancer Research, 1977, 37,2196-2201. That reference discloses that ornithine decarboxylase (ODC) activity increased precedent to polyamine biosynthesis. It has been established elsewhere that increases in polyamine synthesis can be correlated or associated with cellular proliferation. Thus, if ODC activity could be inhibited, cell hyperproliferation could be modulated. Although all causes for ODC activity increases are unknown, it is known that 12-0-tetradecanoylphorbol-13-acetate (TPA) induces ODC activity. Retinoic acid inhibits this induction of ODC activity by TPA. […] The results of this assay for certain exemplary compounds of the invention are shown in Table 1 below, wherein either the IC80 or IC60 value for each exemplary compound is indicated in namolar concentration units. (As is known in the art, the IC60 value is that concentration of the compound (in nanomols) which results in 60% inhibition.)

For the molecule `CC1=C(/C=C/C#Cc2ccc(C(=O)O)cc2)C(C)(C)CCS1` [Compound 2, 4-[4'-(2",6",6"-Trimethyl-3"-thioxacyclohex-1"-enyl) -but-3'(E)-ene-1'-ynyl]benzoic Acid], the IC60 is 0.0014 µM.
For `CCOC(=O)c1ccc(C#C/C=C/C2=C(C)SCCC2(C)C)nc1` [Compound 3, Ethyl 6-[4'-(2",6",6"-Trimethyl-3"-thioxacyclohex-1"-enyl)-but-3'(E)-ene-1'-ynyl]nicotinate], it took 0.028 µM to reach the 80% level (IC80).
In turn, `CC1=C(/C=C/C#Cc2ccc(C(=O)O)cn2)C(C)(C)CCS1` [Compound 4, 6-[4'-(2",6",6"-Trimethyl-3"-thioxacyclohex-1"-enyl)-but-3'(E) -ene-1'-ynyl]nicotinic Acid] returned an IC80 of 0.0336 µM.
In turn, `CCOC(=O)c1ccc(C#C/C=C/C2=C(C)SCCC2(C)C)cc1` [Compound 1, Ethyl 4-[4'-(2",6",6",-Trimethyl-3"-thioxacyclohex-1"-enyl)-but-3'(E)-ene-1'-ynyl]benzoate] yielded an IC60 of 0.0038 µM.
